Where two headings read alike, the source gives them in different places.
Columns and labels:
mTOR = mTOR (Homo sapiens, UniProt P42345); test: mTOR enzyme assay (DELFIA, purified FLAG-TOR, His6-S6K substrate); type: biochemical; set-up: FLAG; settings: 100 μM ATP, 2 hours
PI3K-alpha = PI3K-alpha (Homo sapiens, UniProt P42336); test: PI3K-alpha fluorescence polarization assay; type: biochemical; settings: 20 μM PIP2, 25 μM ATP; read-out: PI3Kα IC50
Summary of the method: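 PIP2 (diC8) and ATP substrate with PI3K in 20 mM HEPES pH 7.5, 2 mM MgCl2, 0.05% CHAPS, 0.01% βME; 1% DMSO final; 30–60 min reaction. Stopped with EDTA plus GST-GRP (70 nM) and TAMRA probe (10 nM); FP (mP) read after 30–90 min, with no-enzyme controls.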

PI3K-gamma = PI3K-gamma (Homo sapiens, UniProt P48736); test: PI3K-gamma fluorescence polarization assay; type: biochemical; settings: 20 μM PIP2, 25 μM ATP; read-out: PI3Kγ IC50
Protocol: The reaction buffer was 20 mM HEPES, pH 7.5, 2 mM MgCl2, 0.05% CHAPS; and 0.01% βME (added fresh). The stop/detection buffer was 100 mM HEPES, pH 7.5, 4 mM EDTA, 0.05% CHAPS; ATP 20 mM in water; PIP2 (diC8, Echelon, Salt Lake City Utah cat #P-4508) 1 mM in water (MW=856.5). The GST-GRP was 1.75 mg/mL or 1.4 mg/mL in 10% glycerol. The red detector (TAMRA) was 2.5 μM. Nunc 384-well black polypropylene fluorescent plates were used for PI3K assays.
The assay is run by placing 5 μL of diluted enzyme per well, then 5 μL of diluted compound (or 9.5 μL enzyme then 0.5 μL compound in DMSO) is added and mixed. Then, 10 μL substrate is added to start the reaction. The samples are incubated 30-60 minutes, then the reaction is stopped by adding 20 μL stop/detector mix. PI3K is diluted with reaction buffer (e.g., 5 μL or 7.5 μL PI3K into 620 μL reaction buffer), and 5 μL of diluted enzyme is used per well. A 5 μL portion of reaction buffer or of drug diluted in buffer (e.g., 4 μL/100 so final DMSO is 1% in reaction) is added to each. Pipetting up and down mixes the samples. Alternatively, the enzyme can be diluted to 1215 μL. In this case 9.8 μL is added per well and 0.2 μL compound is added in DMSO.
To prepare 1 mL of substrate solution, 955 μL reaction buffer, 40 μL PIP2, and 2.5 μL ATP are mixed. 10 μL of substrate is added to each well to start the reaction. […] The stop/detector mix is prepared by mixing 4 μL red detector and 1.6 μL or 2.0 μL GST-GRP with 1 mL stop buffer, which results in 10 nM probe and 70 nM GST-GRP. 20 μL of the stop/detector mix is added to each well to stop the reaction. The plates are read after 30-90 minutes keeping the red probe solutions dark. For the zero time point, stop/detector mix is added to the enzyme just before adding substrate. For an extra control, stop/detector mix is added to buffer (no enzyme) and substrate or to just buffer (no substrate). […] The recommended reaction has 0.06 μL per 20 μL (0.015 μg/20 μL) or 0.01125 μg/15 μL or 0.75 μg/mL.
Plates are read on machines with filters for TAMRA. The units are mP with no enzyme controls reading app 190-220 mP units. Fully active enzyme reduces fluorescence polarization down to 70-100 mP after 30 minutes. An active compound raises the mP values halfway to control or to 120-150 mP units.

MDA468 = test: In vitro cell growth assay (MTS), MDA468; type: cell-based; settings: human breast line MDA468, three days after drug treatment, read-out: MDA IC50
LNCap = test: In vitro cell growth assay (MTS), LNCap; type: cell-based; settings: human prostate line, three days after drug treatment

Sequence of PI3K-alpha (P42336 whole entry, species assumed): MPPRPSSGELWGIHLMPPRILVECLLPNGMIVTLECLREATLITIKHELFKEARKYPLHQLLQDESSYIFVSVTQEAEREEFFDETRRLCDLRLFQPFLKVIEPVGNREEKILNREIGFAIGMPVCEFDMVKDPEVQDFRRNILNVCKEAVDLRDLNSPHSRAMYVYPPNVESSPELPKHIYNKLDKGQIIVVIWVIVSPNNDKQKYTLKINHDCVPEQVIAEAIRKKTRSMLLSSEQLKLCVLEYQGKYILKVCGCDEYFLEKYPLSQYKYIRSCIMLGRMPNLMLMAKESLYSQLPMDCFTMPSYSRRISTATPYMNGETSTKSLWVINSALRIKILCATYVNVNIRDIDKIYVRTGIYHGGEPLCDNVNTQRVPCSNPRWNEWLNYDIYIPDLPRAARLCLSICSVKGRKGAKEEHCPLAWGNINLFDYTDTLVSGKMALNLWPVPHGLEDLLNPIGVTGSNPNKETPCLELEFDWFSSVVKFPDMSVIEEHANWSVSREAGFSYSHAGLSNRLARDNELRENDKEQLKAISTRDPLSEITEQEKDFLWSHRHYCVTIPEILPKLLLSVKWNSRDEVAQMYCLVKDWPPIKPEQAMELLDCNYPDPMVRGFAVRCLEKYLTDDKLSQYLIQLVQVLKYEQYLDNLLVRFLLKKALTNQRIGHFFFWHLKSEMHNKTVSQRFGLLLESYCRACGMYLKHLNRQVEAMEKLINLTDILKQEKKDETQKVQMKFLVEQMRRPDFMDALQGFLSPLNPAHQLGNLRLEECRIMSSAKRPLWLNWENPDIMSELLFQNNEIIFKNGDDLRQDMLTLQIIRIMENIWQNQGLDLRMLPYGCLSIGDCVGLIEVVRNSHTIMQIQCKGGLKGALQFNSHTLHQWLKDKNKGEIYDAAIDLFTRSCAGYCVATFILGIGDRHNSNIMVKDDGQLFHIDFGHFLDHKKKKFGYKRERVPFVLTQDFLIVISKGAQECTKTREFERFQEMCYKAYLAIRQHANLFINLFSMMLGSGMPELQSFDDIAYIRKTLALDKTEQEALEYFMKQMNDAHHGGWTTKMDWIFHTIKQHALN
Sequence of PI3K-alpha (P27986 whole entry partner, species assumed): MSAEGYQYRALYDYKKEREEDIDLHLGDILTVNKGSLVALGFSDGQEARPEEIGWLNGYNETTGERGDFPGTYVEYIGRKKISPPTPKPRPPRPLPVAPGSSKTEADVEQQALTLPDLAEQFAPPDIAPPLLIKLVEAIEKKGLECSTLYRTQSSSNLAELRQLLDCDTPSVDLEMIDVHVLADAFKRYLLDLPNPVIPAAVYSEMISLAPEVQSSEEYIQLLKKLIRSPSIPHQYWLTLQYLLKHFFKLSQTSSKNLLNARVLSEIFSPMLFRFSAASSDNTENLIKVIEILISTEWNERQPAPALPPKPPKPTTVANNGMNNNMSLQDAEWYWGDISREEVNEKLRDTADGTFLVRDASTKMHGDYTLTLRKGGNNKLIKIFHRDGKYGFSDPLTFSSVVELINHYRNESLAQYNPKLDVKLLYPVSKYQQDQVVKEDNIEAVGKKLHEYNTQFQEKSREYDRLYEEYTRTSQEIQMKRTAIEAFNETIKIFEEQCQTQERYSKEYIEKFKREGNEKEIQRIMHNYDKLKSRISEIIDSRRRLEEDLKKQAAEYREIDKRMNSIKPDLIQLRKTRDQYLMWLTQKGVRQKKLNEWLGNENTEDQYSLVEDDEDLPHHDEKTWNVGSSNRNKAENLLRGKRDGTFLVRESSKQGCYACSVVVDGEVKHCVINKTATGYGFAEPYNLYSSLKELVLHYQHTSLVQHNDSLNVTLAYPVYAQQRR
Sequence of PI3K-gamma (P48736 whole entry, species assumed): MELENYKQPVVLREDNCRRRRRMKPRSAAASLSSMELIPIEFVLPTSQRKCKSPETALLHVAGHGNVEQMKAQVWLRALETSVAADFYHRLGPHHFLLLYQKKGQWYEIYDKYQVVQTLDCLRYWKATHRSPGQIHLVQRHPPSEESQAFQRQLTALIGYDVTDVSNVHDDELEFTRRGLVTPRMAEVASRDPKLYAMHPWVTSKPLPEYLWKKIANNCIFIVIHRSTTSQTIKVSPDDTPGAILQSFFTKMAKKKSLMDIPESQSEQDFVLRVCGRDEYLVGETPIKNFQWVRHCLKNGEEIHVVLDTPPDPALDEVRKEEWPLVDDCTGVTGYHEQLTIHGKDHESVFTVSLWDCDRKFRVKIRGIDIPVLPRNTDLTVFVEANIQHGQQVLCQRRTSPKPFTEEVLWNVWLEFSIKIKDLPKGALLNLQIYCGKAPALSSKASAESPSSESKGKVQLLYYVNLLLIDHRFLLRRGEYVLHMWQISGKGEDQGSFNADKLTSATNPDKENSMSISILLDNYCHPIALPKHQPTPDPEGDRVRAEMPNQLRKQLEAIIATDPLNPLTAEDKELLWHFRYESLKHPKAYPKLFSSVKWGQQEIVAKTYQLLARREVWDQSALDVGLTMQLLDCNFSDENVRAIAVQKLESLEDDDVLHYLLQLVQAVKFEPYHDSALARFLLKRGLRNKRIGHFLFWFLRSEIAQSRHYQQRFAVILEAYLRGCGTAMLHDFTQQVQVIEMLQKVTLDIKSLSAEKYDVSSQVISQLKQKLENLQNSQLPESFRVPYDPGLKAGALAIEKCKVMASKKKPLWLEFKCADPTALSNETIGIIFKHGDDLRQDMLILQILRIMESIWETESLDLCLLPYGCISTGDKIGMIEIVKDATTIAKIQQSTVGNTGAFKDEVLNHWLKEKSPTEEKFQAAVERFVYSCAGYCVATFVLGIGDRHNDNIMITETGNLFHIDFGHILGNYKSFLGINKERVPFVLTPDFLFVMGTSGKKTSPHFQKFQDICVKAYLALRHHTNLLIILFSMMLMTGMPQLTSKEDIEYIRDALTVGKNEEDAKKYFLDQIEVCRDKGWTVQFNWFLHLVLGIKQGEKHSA
Sequence of mTOR (P42345 1360-2549 limits assumed): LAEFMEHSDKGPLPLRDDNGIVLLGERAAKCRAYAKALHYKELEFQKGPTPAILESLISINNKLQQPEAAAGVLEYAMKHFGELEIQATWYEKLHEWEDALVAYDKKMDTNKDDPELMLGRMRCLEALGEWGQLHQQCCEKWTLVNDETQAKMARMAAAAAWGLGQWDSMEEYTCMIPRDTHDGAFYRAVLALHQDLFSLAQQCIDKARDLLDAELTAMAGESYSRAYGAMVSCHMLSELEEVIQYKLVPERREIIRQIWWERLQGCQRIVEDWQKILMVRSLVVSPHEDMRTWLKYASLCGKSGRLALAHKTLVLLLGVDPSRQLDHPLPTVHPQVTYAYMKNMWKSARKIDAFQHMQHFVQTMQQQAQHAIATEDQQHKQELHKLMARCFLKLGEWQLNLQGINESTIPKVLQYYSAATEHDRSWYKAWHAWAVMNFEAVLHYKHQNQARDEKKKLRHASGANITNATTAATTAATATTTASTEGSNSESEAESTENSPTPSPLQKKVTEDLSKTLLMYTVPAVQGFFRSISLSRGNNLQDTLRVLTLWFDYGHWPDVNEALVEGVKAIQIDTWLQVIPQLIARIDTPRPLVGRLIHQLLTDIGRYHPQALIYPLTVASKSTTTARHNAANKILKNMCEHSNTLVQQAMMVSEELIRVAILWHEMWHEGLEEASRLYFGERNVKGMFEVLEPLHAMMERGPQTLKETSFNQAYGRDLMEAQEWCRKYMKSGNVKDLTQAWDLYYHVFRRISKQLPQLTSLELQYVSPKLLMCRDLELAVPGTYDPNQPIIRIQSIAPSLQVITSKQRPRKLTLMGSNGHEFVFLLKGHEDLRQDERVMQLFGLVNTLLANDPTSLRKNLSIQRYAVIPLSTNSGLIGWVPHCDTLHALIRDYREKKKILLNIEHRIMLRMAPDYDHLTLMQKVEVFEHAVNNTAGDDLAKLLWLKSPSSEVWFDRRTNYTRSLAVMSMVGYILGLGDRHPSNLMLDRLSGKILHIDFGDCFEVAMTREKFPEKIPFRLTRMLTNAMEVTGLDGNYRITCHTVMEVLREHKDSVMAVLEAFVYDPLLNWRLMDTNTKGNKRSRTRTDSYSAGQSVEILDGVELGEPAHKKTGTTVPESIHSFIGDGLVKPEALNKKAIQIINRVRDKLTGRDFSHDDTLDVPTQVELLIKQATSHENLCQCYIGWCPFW

| SMILES | IC50 (mTOR) | IC50 (PI3K-alpha) | IC50 (LNCap; LNCaP, 72 h) | IC50 (LNCap) | IC50 (PI3K-gamma) | IC50 (MDA468; 72 h) | IC50 (MDA468) |
| --- | --- | --- | --- | --- | --- | --- | --- |
| CC(C)Nc1cc(N2C3CCC2COC3)nc(-c2ccc(NC(=O)Nc3ccc(OCCN4CCCC4)cc3)cc2)n1 [1-(4-{4-[(1-methylethyl)amino]-6-(3-oxa-8-azabicyclo[3.2.1]oct-8-yl)pyrimidin-2-yl}phenyl)-3-[4-(2-pyrrolidin-1-ylethoxy)phenyl]urea] | 3.05 nM | 1320 nM | 50 nM |  | 4730 nM | 55 nM |  |
| CC(C)Nc1cc(N2C3CCC2COC3)nc(-c2ccc(NC(=O)Nc3ccc(CN4CCCC4)cc3)cc2)n1 [1-(4-{4-[(1-methylethyl)amino]-6-(3-oxa-8-azabicyclo[3.2.1]oct-8-yl)pyrimidin-2-yl}phenyl)-3-[4-(pyrrolidin-1-ylmethyl)phenyl]urea] | 2.95 nM | 1090 nM | 110 nM |  | 3580 nM | 80 nM |  |
| CC(C)Nc1cc(N2C3CCC2COC3)nc(-c2ccc(NC(=O)Nc3cccnc3)cc2)n1 [1-(4-{4-[(1-methylethyl)amino]-6-(3-oxa-8-azabicyclo[3.2.1]oct-8-yl)pyrimidin-2-yl}phenyl)-3-pyridin-3-ylurea] | 1.1 nM | 4350 nM | 45 nM |  | ≥ 10000 nM | 100 nM |  |
| O=C(Nc1ccncc1)Nc1ccc(-c2nc(N3C4CCC3COC4)cc(N3C[C@H]4C[C@@H]3CO4)n2)cc1 [1-(4-{4-[(1R,4R)-2-oxa-5-azabicyclo[2.2.1]hept-5-yl]-6-(3-oxa-8-azabicyclo[3.2.1]oct-8-yl)pyrimidin-2-yl}phenyl)-3-pyridin-4-ylurea] | 2.25 nM | 1890 nM | 90 nM |  | 7430 nM | 110 nM |  |
| CCN(CC)c1cc(N2C3CCC2COC3)nc(-c2ccc(NC(=O)Nc3ccncc3)cc2)n1 [1-{4-[4-(diethylamino)-6-(3-oxa-8-azabicyclo[3.2.1]oct-8-yl)pyrimidin-2-yl]phenyl}-3-pyridin-4-ylurea] | 4.55 nM | 2410 nM |  |  | 1990 nM |  |  |
| O=C(Nc1ccc(-c2nc(N3CC4CCC(C3)O4)cc(C(F)(F)F)n2)cc1)OCCO [2-hydroxyethyl {4-[4-(8-oxa-3-azabicyclo[3.2.1]oct-3-yl)-6-(trifluoromethyl)pyrimidin-2-yl]phenyl}carbamate] | 15.5 nM | 5160 nM | 950 nM |  |  | 4000 nM |  |
| O=C(Nc1ccc(-c2nc(-c3ccccc3)cc(N3CC4CCC(C3)O4)n2)cc1)OCCO [2-hydroxyethyl {4-[4-(8-oxa-3-azabicyclo[3.2.1]oct-3-yl)-6-phenylpyrimidin-2-yl]phenyl}carbamate] | 21.5 nM | 452 nM | 600 nM |  |  | 5500 nM |  |
| O=C(Nc1ccc(-c2nccc(N3CC4CCC(C3)O4)n2)cc1)OCCO [2-hydroxyethyl {4-[4-(8-oxa-3-azabicyclo[3.2.1]oct-3-yl)pyrimidin-2-yl]phenyl}carbamate] | 165 nM | 5070 nM | 4000 nM |  |  | 24000 nM |  |
| Nc1ccc(-c2nccc(N3CC4CCC(C3)O4)n2)cc1 [4-[4-(8-oxa-3-azabicyclo[3.2.1]oct-3-yl)pyrimidin-2-yl]aniline] | 4000 nM | 6850 nM | 41000 nM |  |  | ≥ 60000 nM |  |
| CC(C)Nc1nc(-c2ccc(NC(=O)Nc3cccnc3)cc2)nc(N2CC3CCC(C2)O3)c1NC(=O)CCN(C)C [N~3~,N~3~-dimethyl-N-(4-[(1-methylethyl)amino]-6-(8-oxa-3-azabicyclo[3.2.1]oct-3-yl)-2-{4-[(pyridin-3-ylcarbamoyl)amino]phenyl}pyrimidin-5-yl)-beta-alaninamide] | 13500 nM | 5980 nM | 30000 nM |  |  | ≥ 60000 nM |  |
| CN(Cc1ccc(NC(=O)Nc2ccc(-c3nc(CS(C)(=O)=O)cc(N4CC5CCC(C4)O5)n3)cc2)cc1)C(=O)OC(C)(C)C [tert-butyl methyl(4-{[(4-{4-[(methylsulfonyl)methyl]-6-(8-oxa-3-azabicyclo[3.2.1]oct-3-yl)pyrimidin-2-yl}phenyl)carbamoyl]amino}benzyl)carbamate] | 30 nM | 1930 nM | 210 nM |  |  | 470 nM |  |

More lines, main results first:

| IC50 (mTOR) | IC50 (PI3K-alpha) | IC50 (LNCap; LNCaP, 72 h) | IC50 (LNCap) | SMILES | IC50 (PI3K-gamma) | IC50 (MDA468; 72 h) | IC50 (MDA468) |
| --- | --- | --- | --- | --- | --- | --- | --- |
| 0.58 nM | 44.5 nM |  | 41 nM | NC(=O)c1ccc(NC(=O)Nc2ccc(-c3cc(N4CC5CCC(C4)O5)nc(-c4ccc(NC(=O)Nc5ccc(C(N)=O)cc5)cc4)n3)cc2)cc1 [4,4′-{[6-(8-oxa-3-azabicyclo[3.2.1]oct-3-yl)pyrimidine-2,4-diyl]bis(4,1-phenylenecarbamoylimino)}dibenzamide] |  |  | 45 nM |
| 2.8 nM | 101 nM | 180 nM |  | O=C(Nc1ccc(-c2cc(N3CC4CCC(C3)O4)nc(-c3ccc(NC(=O)Nc4cccnc4)cc3)n2)cc1)Nc1cccnc1 [N,N″-{[6-(8-oxa-3-azabicyclo[3.2.1]oct-3-yl)pyrimidine-2,4-diyl]di-4,1-phenylene}bis(3-pyridin-3-ylurea)] |  | 380 nM |  |
| 3.2 nM | 69.5 nM | 220 nM |  | O=C(Nc1ccncc1)Nc1ccc(-c2cc(N3CC4CCC(C3)O4)nc(-c3ccc(NC(=O)Nc4ccncc4)cc3)n2)cc1 [N,N″-{[6-(8-oxa-3-azabicyclo[3.2.1]oct-3-yl)pyrimidine-2,4-diyl]di-4,1-phenylene}bis(3-pyridin-4-ylurea)] |  | 780 nM |  |
| 4 nM | 2920 nM | 310 nM |  | O=C(Nc1ccc(-c2cc(N3CC4CCC(C3)O4)nc(-c3ccc(NC(=O)NC4CC4)cc3)n2)cc1)NC1CC1 [N′,N′″-{[6-(8-oxa-3-azabicyclo[3.2.1]oct-3-yl)pyrimidine-2,4-diyl]di-4,1-phenylene}bis(1-cyclopropylurea)] |  | 1500 nM |  |
| 1.85 nM | 1660 nM | 310 nM |  | CCNC(=O)Nc1ccc(-c2cc(N3CC4CCC(C3)O4)nc(-c3ccc(NC(=O)NCC)cc3)n2)cc1 [N′,N′″-{[6-(8-oxa-3-azabicyclo[3.2.1]oct-3-yl)pyrimidine-2,4-diyl]di-4,1-phenylene}bis(1-ethylurea)] |  | 790 nM |  |
| 2.8 nM | 990 nM | 1200 nM |  | CNC(=O)Nc1ccc(-c2cc(N3CC4CCC(C3)O4)nc(-c3ccc(NC(=O)NC)cc3)n2)cc1 [N′,N′″-{[6-(8-oxa-3-azabicyclo[3.2.1]oct-3-yl)pyrimidine-2,4-diyl]di-4,1-phenylene}bis(1-methylurea)] |  | 1100 nM |  |
| 2.15 nM | 1020 nM | 300 nM |  | CN1CCN(c2ccc(NC(=O)Nc3ccc(-c4cc(N5CC6CCC(C5)O6)nc(-c5ccc(NC(=O)Nc6ccc(N7CCN(C)CC7)cc6)cc5)n4)cc3)cc2)CC1 [N′,N′″-{[6-(8-oxa-3-azabicyclo[3.2.1]oct-3-yl)pyrimidine-2,4-diyl]di-4,1-phenylene}bis{1-[4-(4-methylpiperazin-1-yl)phenyl]urea}] |  | 760 nM |  |
| 9.4 nM | 5000 nM | 240 nM |  | O=C(Nc1ccc(-c2cc(N3CC4CCC(C3)O4)nc(-c3ccc(NC(=O)OCCO)cc3)n2)cc1)OCCO [bis(2-hydroxyethyl) {[6-(8-oxa-3-azabicyclo[3.2.1]oct-3-yl)pyrimidine-2,4-diyl]di-4,1-phenylene}biscarbamate] |  | 1600 nM |  |

Reference: patent publication US8835429B2, “Pyrimidine compounds, their use as mTOR kinase and Pl3 kinase inhibitors, and their syntheses” (Wyeth LLC, priority 2009, dated 2014)
